Data from ChEMBL document CHEMBL5653631, “A Potent and Selective ULK1 Inhibitor Suppresses Autophagy and Sensitizes Cancer Cells to Nutrient Stress” (iScience, 2018).
One block for each compound: values may come before it.

Key:
[1] = target: T1, Mitogen-activated protein kinase kinase kinase 7 (Homo sapiens) (UniProt O43318); experiment: Inhibition of human recombinant TAK1 at 500 nM related to control ULK1
T1 sequence (whole entry): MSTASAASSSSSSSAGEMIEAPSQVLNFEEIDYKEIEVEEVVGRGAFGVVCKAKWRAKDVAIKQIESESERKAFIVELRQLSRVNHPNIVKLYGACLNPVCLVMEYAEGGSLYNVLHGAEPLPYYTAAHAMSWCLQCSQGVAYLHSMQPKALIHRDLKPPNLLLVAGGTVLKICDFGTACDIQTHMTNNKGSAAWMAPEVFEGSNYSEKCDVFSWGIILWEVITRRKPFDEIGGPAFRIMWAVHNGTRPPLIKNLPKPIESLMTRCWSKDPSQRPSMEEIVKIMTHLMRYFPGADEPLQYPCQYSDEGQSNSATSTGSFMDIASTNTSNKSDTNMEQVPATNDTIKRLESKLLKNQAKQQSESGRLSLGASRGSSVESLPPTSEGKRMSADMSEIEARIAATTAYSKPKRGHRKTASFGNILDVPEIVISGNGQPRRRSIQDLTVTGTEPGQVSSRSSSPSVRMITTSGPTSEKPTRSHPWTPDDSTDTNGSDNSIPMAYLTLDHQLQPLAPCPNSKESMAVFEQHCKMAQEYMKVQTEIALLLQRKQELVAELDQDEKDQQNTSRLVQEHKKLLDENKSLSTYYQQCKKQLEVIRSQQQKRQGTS

[2] = target: Serine/threonine-protein kinase MRCK alpha (Homo sapiens) (UniProt Q5VT25); experiment: Inhibition of human recombinant MRCKa at 500 nM related to control ULK1
Chain of Serine/threonine-protein kinase MRCK alpha (Homo sapiens) (Q5VT25 whole entry): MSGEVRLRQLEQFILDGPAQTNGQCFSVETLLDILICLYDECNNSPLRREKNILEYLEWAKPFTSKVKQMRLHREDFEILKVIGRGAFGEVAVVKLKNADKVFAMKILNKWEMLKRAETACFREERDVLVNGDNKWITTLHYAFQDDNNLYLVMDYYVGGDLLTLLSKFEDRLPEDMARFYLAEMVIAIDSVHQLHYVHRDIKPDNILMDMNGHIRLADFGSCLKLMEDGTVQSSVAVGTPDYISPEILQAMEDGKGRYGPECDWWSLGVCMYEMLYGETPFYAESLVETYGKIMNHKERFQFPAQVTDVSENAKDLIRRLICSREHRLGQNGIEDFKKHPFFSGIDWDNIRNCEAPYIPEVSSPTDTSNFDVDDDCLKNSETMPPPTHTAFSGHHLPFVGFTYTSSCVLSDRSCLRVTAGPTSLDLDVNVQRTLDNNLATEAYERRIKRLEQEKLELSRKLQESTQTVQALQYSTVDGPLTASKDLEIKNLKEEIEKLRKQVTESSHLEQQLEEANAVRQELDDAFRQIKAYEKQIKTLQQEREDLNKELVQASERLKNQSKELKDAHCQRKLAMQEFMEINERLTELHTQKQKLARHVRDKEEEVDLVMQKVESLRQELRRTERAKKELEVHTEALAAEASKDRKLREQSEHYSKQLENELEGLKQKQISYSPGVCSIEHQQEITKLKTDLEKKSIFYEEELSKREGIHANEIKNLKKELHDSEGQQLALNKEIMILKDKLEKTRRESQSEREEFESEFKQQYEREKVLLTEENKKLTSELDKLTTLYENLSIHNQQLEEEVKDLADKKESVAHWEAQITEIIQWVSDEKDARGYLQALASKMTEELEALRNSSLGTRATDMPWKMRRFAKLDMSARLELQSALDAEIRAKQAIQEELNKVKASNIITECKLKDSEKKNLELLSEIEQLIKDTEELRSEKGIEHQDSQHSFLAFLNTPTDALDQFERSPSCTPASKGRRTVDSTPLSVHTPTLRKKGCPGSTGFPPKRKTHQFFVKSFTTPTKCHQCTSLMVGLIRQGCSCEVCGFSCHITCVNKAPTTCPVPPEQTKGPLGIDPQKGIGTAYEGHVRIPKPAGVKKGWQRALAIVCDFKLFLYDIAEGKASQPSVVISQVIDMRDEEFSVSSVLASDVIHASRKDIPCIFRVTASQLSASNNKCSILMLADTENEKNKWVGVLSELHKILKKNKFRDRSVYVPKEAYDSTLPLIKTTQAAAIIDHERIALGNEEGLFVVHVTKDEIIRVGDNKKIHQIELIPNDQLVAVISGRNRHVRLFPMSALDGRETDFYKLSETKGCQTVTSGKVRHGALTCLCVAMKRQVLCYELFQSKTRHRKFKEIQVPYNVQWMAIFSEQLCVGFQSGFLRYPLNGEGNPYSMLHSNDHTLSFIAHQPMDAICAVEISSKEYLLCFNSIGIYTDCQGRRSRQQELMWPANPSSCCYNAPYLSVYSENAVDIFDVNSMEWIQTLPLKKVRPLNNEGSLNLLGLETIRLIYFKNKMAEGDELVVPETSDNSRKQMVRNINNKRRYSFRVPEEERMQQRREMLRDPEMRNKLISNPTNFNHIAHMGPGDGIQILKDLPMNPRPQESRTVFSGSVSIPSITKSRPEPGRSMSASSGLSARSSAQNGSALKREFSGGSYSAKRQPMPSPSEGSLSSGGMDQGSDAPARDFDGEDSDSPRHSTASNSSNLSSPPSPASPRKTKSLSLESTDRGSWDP

[3] = target: Epidermal growth factor receptor (Homo sapiens) (UniProt P00533); experiment: Inhibition of human recombinant EGFR at 500 nM related to control ULK1
[4] = target: Mitogen-activated protein kinase kinase kinase 10 (Homo sapiens) (UniProt Q02779); experiment: Inhibition of human recombinant MLK2 at 500 nM related to control ULK1
Chain of Mitogen-activated protein kinase kinase kinase 10 (Homo sapiens) (Q02779 whole entry, looked up): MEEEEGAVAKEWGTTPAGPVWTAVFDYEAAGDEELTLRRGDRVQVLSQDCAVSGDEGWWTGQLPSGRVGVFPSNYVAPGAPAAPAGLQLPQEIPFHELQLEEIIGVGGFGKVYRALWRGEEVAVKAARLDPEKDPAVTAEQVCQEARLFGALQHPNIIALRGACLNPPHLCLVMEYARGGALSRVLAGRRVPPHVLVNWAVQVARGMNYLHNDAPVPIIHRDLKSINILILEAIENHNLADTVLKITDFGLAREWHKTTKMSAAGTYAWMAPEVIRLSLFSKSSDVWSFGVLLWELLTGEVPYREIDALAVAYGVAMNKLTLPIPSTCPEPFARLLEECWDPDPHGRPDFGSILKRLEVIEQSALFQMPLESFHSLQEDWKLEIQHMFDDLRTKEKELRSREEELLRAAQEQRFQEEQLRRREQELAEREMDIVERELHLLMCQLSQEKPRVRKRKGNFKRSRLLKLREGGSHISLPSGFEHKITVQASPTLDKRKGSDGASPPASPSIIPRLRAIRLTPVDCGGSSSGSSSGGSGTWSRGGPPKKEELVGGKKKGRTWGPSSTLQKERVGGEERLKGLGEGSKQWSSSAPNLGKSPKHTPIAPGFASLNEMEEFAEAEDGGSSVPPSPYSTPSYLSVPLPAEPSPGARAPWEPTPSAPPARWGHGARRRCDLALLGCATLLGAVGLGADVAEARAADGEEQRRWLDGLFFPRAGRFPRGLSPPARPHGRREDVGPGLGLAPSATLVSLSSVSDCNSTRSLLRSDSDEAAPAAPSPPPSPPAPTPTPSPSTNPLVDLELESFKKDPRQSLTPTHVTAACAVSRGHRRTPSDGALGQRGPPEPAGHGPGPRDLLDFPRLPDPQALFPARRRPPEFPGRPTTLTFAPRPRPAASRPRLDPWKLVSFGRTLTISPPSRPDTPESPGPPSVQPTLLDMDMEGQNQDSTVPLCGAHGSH

[5] = target: Serine/threonine-protein kinase PRP4 homolog (Homo sapiens) (UniProt Q13523); experiment: Inhibition of human recombinant PRP4 at 500 nM in presence of ATP by radiometric assay relative to control
[6] = target: Serine/threonine-protein kinase PAK 4 (Homo sapiens) (UniProt O96013); experiment: Inhibition of human recombinant PAK4 at 500 nM related to control ULK1
Chain of Serine/threonine-protein kinase PAK 4 (Homo sapiens) (O96013 whole entry, looked up): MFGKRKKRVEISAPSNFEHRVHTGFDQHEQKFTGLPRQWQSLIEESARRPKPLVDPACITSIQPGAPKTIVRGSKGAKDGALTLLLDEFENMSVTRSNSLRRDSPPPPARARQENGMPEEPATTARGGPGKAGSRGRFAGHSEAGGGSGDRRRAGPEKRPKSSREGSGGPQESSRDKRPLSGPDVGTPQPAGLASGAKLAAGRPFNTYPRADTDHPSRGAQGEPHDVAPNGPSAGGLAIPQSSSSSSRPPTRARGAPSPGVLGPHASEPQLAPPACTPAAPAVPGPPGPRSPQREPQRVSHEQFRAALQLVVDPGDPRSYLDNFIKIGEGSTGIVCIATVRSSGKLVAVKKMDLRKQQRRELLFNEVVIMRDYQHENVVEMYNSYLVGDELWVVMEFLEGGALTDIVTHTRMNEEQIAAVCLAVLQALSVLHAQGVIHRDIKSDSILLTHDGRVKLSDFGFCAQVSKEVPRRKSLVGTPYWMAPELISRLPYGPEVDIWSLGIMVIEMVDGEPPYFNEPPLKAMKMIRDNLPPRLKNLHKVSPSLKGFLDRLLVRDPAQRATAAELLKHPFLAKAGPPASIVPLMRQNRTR

[7] = target: Serine/threonine-protein kinase PLK1 (Homo sapiens) (UniProt P53350); experiment: Inhibition of human recombinant PLK1 at 500 nM related to control ULK1
Chain of Serine/threonine-protein kinase PLK1 (Homo sapiens) (P53350 whole entry): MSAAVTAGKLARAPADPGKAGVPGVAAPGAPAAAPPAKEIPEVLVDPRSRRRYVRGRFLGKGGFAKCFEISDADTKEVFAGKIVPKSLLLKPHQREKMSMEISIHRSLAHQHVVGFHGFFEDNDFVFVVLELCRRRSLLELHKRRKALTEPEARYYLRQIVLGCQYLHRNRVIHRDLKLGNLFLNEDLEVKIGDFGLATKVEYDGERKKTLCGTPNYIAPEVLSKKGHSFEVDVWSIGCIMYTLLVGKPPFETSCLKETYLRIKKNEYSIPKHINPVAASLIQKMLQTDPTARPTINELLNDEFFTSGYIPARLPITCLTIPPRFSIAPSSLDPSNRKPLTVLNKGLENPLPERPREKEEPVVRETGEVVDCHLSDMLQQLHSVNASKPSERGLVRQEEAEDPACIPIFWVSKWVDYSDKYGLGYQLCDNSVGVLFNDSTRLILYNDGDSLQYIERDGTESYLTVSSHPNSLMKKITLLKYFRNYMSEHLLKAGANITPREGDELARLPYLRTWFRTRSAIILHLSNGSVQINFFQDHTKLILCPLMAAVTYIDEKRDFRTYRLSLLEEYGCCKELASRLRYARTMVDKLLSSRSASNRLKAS

[8] = system: G protein-coupled receptor kinase 7 (Homo sapiens); experiment: Inhibition of human recombinant GPRK7 at 15 nM in presence of ATP by radiometric assay relative to control
[9] = target: SRSF protein kinase 2 (Homo sapiens) (UniProt P78362); experiment: Inhibition of human recombinant SRPK2 at 15 nM in presence of ATP by radiometric assay relative to control
Chain of SRSF protein kinase 2 (Homo sapiens) (P78362 whole entry, looked up): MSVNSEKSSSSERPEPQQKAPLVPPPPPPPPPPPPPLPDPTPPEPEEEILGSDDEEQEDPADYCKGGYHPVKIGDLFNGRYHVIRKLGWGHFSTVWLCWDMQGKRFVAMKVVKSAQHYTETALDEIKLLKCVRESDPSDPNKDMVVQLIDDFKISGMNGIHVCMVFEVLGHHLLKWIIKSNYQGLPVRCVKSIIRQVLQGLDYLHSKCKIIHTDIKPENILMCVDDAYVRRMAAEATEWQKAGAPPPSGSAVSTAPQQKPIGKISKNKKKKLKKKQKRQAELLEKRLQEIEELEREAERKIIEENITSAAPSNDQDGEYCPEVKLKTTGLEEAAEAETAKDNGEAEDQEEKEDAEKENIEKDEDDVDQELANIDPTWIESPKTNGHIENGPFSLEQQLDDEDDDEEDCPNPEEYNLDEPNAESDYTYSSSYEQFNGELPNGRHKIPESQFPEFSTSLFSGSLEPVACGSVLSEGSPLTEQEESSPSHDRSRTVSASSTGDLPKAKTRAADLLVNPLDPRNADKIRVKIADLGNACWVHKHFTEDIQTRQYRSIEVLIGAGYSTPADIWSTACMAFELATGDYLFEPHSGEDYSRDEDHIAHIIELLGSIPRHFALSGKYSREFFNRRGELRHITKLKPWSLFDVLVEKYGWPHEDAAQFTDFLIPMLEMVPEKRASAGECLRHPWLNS

[10] = target: Glycogen synthase kinase-3 alpha (Homo sapiens) (UniProt P49840); experiment: Inhibition of human recombinant GSK3A at 40 nM in presence of ATP by radiometric assay relative to control
Chain of Glycogen synthase kinase-3 alpha (Homo sapiens) (P49840 2-483 limits assumed): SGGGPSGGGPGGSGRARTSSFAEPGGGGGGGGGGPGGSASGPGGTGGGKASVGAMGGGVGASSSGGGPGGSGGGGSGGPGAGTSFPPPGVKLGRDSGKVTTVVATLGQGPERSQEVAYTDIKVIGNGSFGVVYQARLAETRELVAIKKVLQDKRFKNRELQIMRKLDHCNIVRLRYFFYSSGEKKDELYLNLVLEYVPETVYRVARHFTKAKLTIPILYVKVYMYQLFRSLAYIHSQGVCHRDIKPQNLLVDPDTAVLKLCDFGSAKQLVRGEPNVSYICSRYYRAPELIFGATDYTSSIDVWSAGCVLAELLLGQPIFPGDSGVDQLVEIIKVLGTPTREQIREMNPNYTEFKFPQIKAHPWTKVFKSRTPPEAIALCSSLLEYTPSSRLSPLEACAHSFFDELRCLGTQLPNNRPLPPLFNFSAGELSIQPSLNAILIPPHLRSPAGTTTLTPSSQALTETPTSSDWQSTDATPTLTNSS

[11] = target: T2, Inhibitor of nuclear factor kappa-B kinase subunit epsilon (Homo sapiens) (UniProt Q14164); experiment: Inhibition of human recombinant IKKe at 40 nM related to control ULK1
T2 sequence (whole entry): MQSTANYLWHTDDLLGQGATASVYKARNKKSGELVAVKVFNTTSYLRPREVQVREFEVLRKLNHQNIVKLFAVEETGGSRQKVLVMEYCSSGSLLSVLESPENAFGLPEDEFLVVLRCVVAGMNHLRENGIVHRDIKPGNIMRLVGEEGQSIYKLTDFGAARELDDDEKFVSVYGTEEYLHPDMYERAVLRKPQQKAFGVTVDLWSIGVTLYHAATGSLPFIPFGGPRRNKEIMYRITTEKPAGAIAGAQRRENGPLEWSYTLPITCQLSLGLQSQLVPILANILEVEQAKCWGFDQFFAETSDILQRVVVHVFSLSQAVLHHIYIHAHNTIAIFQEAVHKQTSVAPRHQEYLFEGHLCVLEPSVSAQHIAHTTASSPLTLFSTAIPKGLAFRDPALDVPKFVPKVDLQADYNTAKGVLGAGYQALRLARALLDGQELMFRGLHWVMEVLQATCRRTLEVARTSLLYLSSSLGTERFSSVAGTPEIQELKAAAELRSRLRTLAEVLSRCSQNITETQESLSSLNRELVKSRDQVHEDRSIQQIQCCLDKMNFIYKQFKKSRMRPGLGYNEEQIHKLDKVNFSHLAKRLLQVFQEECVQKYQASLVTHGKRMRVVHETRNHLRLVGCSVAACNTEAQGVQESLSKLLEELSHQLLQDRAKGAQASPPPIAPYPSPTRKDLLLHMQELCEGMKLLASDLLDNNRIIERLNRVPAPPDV

[12] = target: T3, NUAK family SNF1-like kinase 2 (Homo sapiens) (UniProt Q9H093); experiment: Inhibition of human recombinant NuaK2 at 40 nM related to control ULK1
T3 sequence (whole entry): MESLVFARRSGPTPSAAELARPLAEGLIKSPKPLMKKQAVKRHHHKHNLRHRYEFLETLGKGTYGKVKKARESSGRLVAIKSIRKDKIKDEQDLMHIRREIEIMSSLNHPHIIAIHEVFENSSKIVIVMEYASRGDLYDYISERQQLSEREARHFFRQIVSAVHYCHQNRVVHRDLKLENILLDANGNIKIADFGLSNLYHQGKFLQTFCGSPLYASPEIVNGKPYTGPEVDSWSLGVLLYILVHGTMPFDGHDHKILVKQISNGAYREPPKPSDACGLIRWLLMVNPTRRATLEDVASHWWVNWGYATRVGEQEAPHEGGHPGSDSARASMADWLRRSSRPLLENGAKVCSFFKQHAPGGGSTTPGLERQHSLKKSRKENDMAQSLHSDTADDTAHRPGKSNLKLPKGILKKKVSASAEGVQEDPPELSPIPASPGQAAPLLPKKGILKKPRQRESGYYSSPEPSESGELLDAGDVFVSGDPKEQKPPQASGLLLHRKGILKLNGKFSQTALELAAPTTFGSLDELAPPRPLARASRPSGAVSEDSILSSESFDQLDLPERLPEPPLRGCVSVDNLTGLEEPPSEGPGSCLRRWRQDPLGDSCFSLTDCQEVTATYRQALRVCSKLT

fold change (FC) [1]: 0.03
fold change (FC) [2]: 0.09
fold change (FC) [3]: 0.04
fold change (FC) [4]: 0.95
inhibition [5]: 2%
fold change (FC) [6]: 0.55
fold change (FC) [7]: 0
SMILES: CNC(=O)c1ccccc1Oc1nc(Nc2cc(OC)c(OC)c(OC)c2)ncc1Br

inhibition [8]: 0%
inhibition [9]: 0%
SMILES: CC(C)[C@H](NC(=O)c1cc(-c2cnn3cc(-c4ccc(OCCN5CCCCC5)cc4)cnc23)cs1)C(F)(F)F

inhibition [10]: 0%
fold change (FC) [11]: 0.41
fold change (FC) [12]: 0.04
SMILES: O=C(N[C@@H](C1CC1)C(F)(F)F)c1cc(-c2cnn3cc(-c4ccc(F)cc4)cnc23)cs1
